Values joined by “and” are separate entries in the source; they are usually repeats but may differ in a detail not shown here. Equal entries are not always repeated.
What was measured:
[1] = tested on: locally recurrent or metastatic estrogen receptor-positive breast cancer; test: Phase 2 randomized, double-blind study of exemestane with and without entinostat (ENCORE-301): efficacy; assay type: in vivo, human; details: for median progression-free survival (PFS) / overall survival: intent-to-treat population; for overall survival: median follow-up of 18 months
Description: (§1) Secondary Outcome Measures are to compare objective response rate (ORR) and clinical benefit rate (CBR), and to evaluate the safety and tolerability of entinostat in combination with exemestane as measured by adverse events and laboratory safety parameters.
The primary endpoint of the study was progression-free survival. Other endpoints included objective response rate (ORR), clinical benefit rate (CBR), overall survival (OS) and safety and tolerability. All patients had received prior hormonal therapy (1 prior line 42%; >1 prior line 58%), and 33% had received prior chemotherapy in the advanced breast cancer setting.
One hundred thirty (130) patients were enrolled between June 2008 and July 2010 at 38 sites in North America, Central Europe, and Russia. All patients provided written informed consent. […] Randomization was stratified by 1) prior NSAI treatment setting (adjuvant/metastatic); 2) metastases in bone only (yes/no); and 3) geographic region (North America/Central Europe and Russia). The randomization schedule was prepared and maintained by an independent statistical service provider. The protocol allowed for enrollment of approximately 20% of patients with non-measurable disease.
Postmenopausal women with ER+BC currently experiencing disease relapse or progression while receiving a NSAI were eligible. Patients either had 1) relapsed after adjuvant NSAI treatment administered for at least 12 months or 2) progressed after NSAI treatment administered for at least 3 months in the metastatic/advanced setting. One prior line of chemotherapy in the metastatic setting was permitted if given before the most recent NSAI. Within 4 weeks prior to starting study treatment, patients must have had at least 1 measurable lesion (≥20 mm by conventional techniques or ≥10 mm by spiral computed tomography [CT] scan), or with bone only metastases, a positive bone scan confirmed by magnetic resonance imaging (MRI) or positron emission tomography (PET)-CT. Additional requirements included, an Eastern Cooperative Oncology Group (ECOG) performance status of 0 or 1; adequate hematologic parameters; and creatinine, aspartate transaminase, and alanine transaminase <2.5 times the upper limit of normal. Patients with prior fulvestrant, exemestane, entinostat, or any other HDACi were excluded.
Treatment cycles were 28 days in length. Patients were evaluated on Day (D) 1, D8, and D15 during Cycle (C) 1 and on D1 of all subsequent cycles. Peripheral blood samples were taken in a subset of patients pre- and post-dosing on D1, 8, or 15 of C1. Patient/disease response assessments were performed on D22 of C2 and every other cycle thereafter. After completing study treatment, patients entered into post-treatment follow-up for evaluation of overall survival and subsequent therapies. Patients were to be followed until death, withdrawal of consent, or study closure by the sponsor.
Disease was evaluated using the Response Evaluation Criteria in Solid Tumors (RECIST), version 1.0. Contrast-enhanced CT scans were obtained at baseline, every other cycle for 12 months, and every third cycle thereafter. PD also was assessed by bone scan and clinical symptoms, as appropriate.
The primary endpoint was PFS, defined as the number of months from randomization to documented PD or death due to any cause. Secondary endpoints included overall response (OR; complete response [CR]+partial response [PR]) and clinical benefit rates (CBR; OR+stable disease [SD] for ≥6 months). Overall Survival (OS) was an exploratory endpoint.
PFS was summarized descriptively using the Kaplan-Meier method and reported based on 116 progression events as of March 2012. The HR was estimated from a stratified Cox proportional hazards model, with placebo serving as the reference in the calculation. The primary inferential comparison between groups was made using the log-rank test, stratified by the 3 randomization factors. For patients who died before documentation of PD, death date was used as the PD date. […]

[2] = Phase 2 study of exemestane with and without entinostat: safety and tolerability (adverse events); assay type: in vivo, human
Description: as §1
Safety was assessed by adverse events (AEs), using the National Cancer Institute Common Terminology Criteria for Adverse Events, version 3.0, electrocardiograms, hematology and serum chemistries, ECOG performance status, and vital signs.
Safety was assessed by an independent Data Safety Monitoring Board. All participating investigators and patients remain blinded to the assigned study treatment, as post-treatment follow-up for OS is continuing.

[3] = tested on: locally recurrent or metastatic estrogen receptor-positive breast cancer; test: PFS by change in protein lysine acetylation in PBMCs (biomarker subset of the Phase 2 study); assay type: in vivo, human
Description: The primary endpoint was progression-free survival (PFS).
Protein lysine acetylation was measured by multi-parameter flow cytometry in peripheral blood mononuclear cells (PBMCs; CD19+ B cells, CD3+ T cells, and CD14+ monocytes) collected pre and post-treatment on D1, D8, and D15 of C1 to explore the association with PFS.
The association of PFS with degree of change in protein lysine acetylation from baseline in PBMCs was evaluated as an exploratory, post-hoc analysis in a subset of patients using the Cox proportional hazard model. Analyses in all 3 cell types (B cells, T cells, monocytes) was performed for consistency of results and to aid in selection of optimal cell type for analysis in future studies.
Baseline characteristics were consistent with the overall study population (FIG. 17). Hyperacetylation in EE patients was associated with a prolonged median PFS consistent across all cell types tested (FIG. 18): 8.5 versus 2.7 months for low acetylators (HR=0.32, 95% CI 0.13, 0.79) (B cells); 6.6 versus 3.6 months for low acetylators (HR=0.44, 95% CI 0.18, 1.08) (T cells); and 6.2 versus 3.6 months for low acetylators (HR=0.50, 95% CI 0.21, 1.20) (monocytes). […] The percent change in acetylation from baseline was determined based upon the last sample obtained. The degree of change in acetylation was then dichotomized into “high” (i.e., above the median or “hyperacetylators”) and “low” (i.e., below the median) subgroups using a non-model based approach: patients with a change from baseline that was greater than or equal to the 50th percentile (median) of the overall distribution were assigned to the “high” group; patients with a change less than the 50th percentile were assigned to the “low” group. The cut-point for the analysis (50th percentile) was determined a priori, but was not based on findings from earlier studies.
Percent change is calculated and related to progression free survival (PFS) outcome data. Hyperacetylation independent of treatment arm is defined as a percent change increase above the calculated median percent change for each cell type.

[4] = tested on: advanced BC demonstrating PD or recurrence following a NSAI; details: reported by Chia, et al; cited from earlier work
[5] = Plasma entinostat concentration at acetylation sampling time points; assay type: in vivo, human; details: D8 and D15 time points used for acetylation evaluation; generally at or below the assay detection limit
[6] = in vivo; cited from earlier work
[7] = listed as exemestane plus placebo

## C=C1C[C@@H]2[C@H](CC[C@]3(C)C(=O)CC[C@@H]23)[C@@]2(C)C=CC(=O)C=C12 [EP, exemestane]
[1]; 23-month follow-up
  median overall survival: 19.8 months
[1]; Example 1c analysis
  incidence of death: 65%
[1]; Example 1c analysis, ITT population
  median OS: 19.8 months
[1]; ITT population
  clinical benefit rate (CBR; OR+SD for >=6 months): 25.8%
[1]; ITT population, RECIST 1.0
  overall response (OR; CR+PR): 4.6%
[1]
  median progression-free survival (PFS): 2.3 months and 2.27 months
  overall survival: 20.3 months
[1]; listed as exemestane alone
  median progression-free survival (PFS): 2.3 months
[1]; [7]
  median progression-free survival (PFS): 2.27 months and 2.3 months
  overall survival: 20.33 months
[1]; listed as exemestane+placebo
  median progression-free survival (PFS): 2.3 months
[2]; Example 1a
  serious AE rate: 12%
[2]; Example 1c, Safety Population
  incidence of serious AEs: 12%
[2]; Safety Population
  AEs leading to dose modification: 6%
  AEs leading to study discontinuation: 2%
  G4 AEs: 3%
  Grade (G) 3 AEs: 23%
[2]; Safety Population, irrespective of study drug relationship
  rate of AEs: 85%
[3]; B cells
  median PFS, high acetylators (hyperacetylation): 1.9 months and 1.92 months
  median PFS, low acetylators: 1.8 months
[3]; T cells
  median PFS, high acetylators (hyperacetylation): 1.77 months
[3]; monocytes
  median PFS, high acetylators (hyperacetylation): 1.87 months
[4]
  median PFS: 3.7 months

## Nc1ccccc1NC(=O)c1ccc(CNC(=O)OCc2cccnc2)cc1 [entinostat, N-(2-aminophenyl)-4-[N-(pyridine-3-yl)methoxycarbonylamino-methyl]-benzamide]
[2]; EE group, 13 of 19 cases
  neutropenia cases attributed to entinostat: 68%
[2]; Phase 2 clinical trial
  tolerability / safety profile: acceptable safety profile
[5]
  plasma entinostat concentration: < 0.5 ng/mL
[6]
  half-life: about 100 hours
